# Measurements from patent US20170253601A1, “Substituted Pyrrolidine Compounds” (EPIZYME, INC., priority 2014, published 2017).
# Target: T1, SMYD2 (Homo sapiens, UniProt Q9NRG4)
# T1 construct: Full length SMYD2 (NP 064582.2) was cloned; His6 (N, cleaved yes); FLAG (N); made in house; host or cells: Sf9 insect cells
# Experiment: SMYD2 Biochemical Assay (3H-SAM, biotinylated peptide substrate, Flashplate)
# Settings: IC50 values are an average of n = 1 to n = 50; read-out: SMYD2 Biochem IC50 (μM)*
# Outline: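 Full-length His/FLAG-tagged SMYD2 expressed in Sf9 cells with tag cleaved, 1.5 nM, pre-incubated 30 min at room temperature with compound, then 10 nM 3H-SAM and 60 nM biotinylated peptide added. Buffer 20 mM Bicine pH 7.6, 1 mM TCEP, 0.005% BSG, 0.002% Tween20, 2% DMSO. Stopped with 600 uM cold SAM; 3H-peptide captured on streptavidin Flashplate; IC50 by curve fit.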
# T1 sequence (Q9NRG4 whole entry): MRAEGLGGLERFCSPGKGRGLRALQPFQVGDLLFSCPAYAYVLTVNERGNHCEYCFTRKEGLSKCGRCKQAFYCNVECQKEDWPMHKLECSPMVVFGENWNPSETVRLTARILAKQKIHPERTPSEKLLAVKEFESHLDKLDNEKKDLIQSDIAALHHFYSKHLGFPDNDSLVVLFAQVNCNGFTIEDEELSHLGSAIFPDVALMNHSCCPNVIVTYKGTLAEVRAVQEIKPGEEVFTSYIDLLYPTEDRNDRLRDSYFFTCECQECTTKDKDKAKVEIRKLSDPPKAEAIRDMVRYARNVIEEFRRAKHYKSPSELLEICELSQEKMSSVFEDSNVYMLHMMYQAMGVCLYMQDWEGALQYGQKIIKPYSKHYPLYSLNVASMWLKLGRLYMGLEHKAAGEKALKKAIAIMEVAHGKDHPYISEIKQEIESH
row,Structure (SMILES),IC50 [µM]
1,"C[C@@H]1CN(Cc2cc([N+](=O)[O-])ccc2F)C[C@H]1NC(=O)c1cc(C2CC2)on1 (racemic) [compound 179, (±)-trans-5-cyclopropyl-N-[1-[(2-fluoro-5-nitrophenyl)methyl]-4-methylpyrrolidin-3-yl]-1,2-oxazole-3-carboxamide]",> 50
2,"C[C@@H]1CN(Cc2c[nH]cn2)C[C@H]1NC(=O)c1cc(C2CC2)on1 (racemic) [compound 180, (±)-trans-5-cyclopropyl-N-[1-(1H-imidazol-4-ylmethyl)-4-methylpyrrolidin-3-yl]-1,2-oxazole-3-carboxamide]",42.5
3,"COc1cc(CN2C[C@@H](C)[C@H](NC(=O)c3cc(C4CC4)on3)C2)cc(OC)c1 (racemic) [compound 181, (±)-trans-5-cyclopropyl-N-[1-[(3,5-dimethoxy-phenyl)methyl]-4-methylpyrrolidin-3-yl]-1,2-oxazole-3-carboxamide]",> 50
4,"Cc1nn(C)cc1CN1C[C@@H](C)[C@H](NC(=O)c2cc(C3CC3)on2)C1 (racemic) [compound 183, (±)-trans-5-cyclopropyl-N-[1-[(1,3-dimethyl-1H-pyrazol-4-yl)methyl]-4-methylpyrrolidin-3-yl]-1,2-oxazole-3-carboxamide]",> 50
5,"C[C@@H]1CN(Cc2ccnn2C)C[C@H]1NC(=O)c1cc(C2CC2)on1 (racemic) [compound 184, (±)-trans-5-cyclopropyl-N-[4-methyl-1-[(1-methyl-1H-pyrazol-5-yl)methyl]pyrrolidin-3-yl]-1,2-oxazole-3-carboxamide]",> 50
6,"C[C@H]1CN(CC2CCCOC2)C[C@H]1NC(=O)c1cc(C2CC2)on1 (mixture of isomers) [compound 185, (±)-cis-5-cyclopropyl-N-[4-methyl-1-(oxan-3-ylmethyl)pyrrolidin-3-yl]-1,2-oxazole-3-carboxamide]",4.92
7,"CC[C@H]1CN(C)C[C@H]1NC(=O)c1cc(C2CC2)on1 (racemic) [compound 187, (±)-cis-5-cyclopropyl-N-[4-ethyl-1-methyl-pyrrolidin-3-yl]-1,2-oxazole-3-carboxamide]",18.1
8,"CC[C@H]1CN(C(C)C)C[C@H]1NC(=O)c1cc(C2CC2)on1 (racemic) [compound 188, (±)-cis-5-cyclopropyl-N-[4-ethyl-1-(propan-2-yl)pyrrolidin-3-yl]-1,2-oxazole-3-carboxamide]",15.9
9,"CC(C)N1C[C@@H](C)[C@H](NC(=O)c2cc(C3CC3)on2)C1 (racemic) [compound 191, (±)-trans-5-cyclopropyl-N-[4-methyl-1-(propan-2-yl)pyrrolidin-3-yl]-1,2-oxazole-3-carboxamide]",40.3
10,"CC(C)c1cc(C(=O)N[C@@H]2CN(C(C)C)C[C@H]2C)no1 (racemic) [compound 192, (±)-trans-N-[4-methyl-1-(propan-2-yl)pyrrolidin-3-yl]-5-(propan-2-yl)-1,2-oxazole-3-carboxamide]",> 50
11,"CC(C)c1cc(C(=O)N[C@@H]2CN(C(C)C)C[C@@H]2C)no1 (racemic) [compound 193, (±)-cis-N-[4-methyl-1-(propan-2-yl)pyrrolidin-3-yl]-5-(propan-2-yl)-1,2-oxazole-3-carboxamide]",7.85
12,"C[C@H]1CN(Cc2c[nH]c3ccccc23)C[C@H]1NC(=O)c1cc(C2CC2)on1 (racemic) [compound 194, (±)-cis-5-cyclopropyl-N-[1-(1H-indol-3-ylmethyl)-4-methyl-pyrrolidin-3-yl]-1,2-oxazole-3-carboxamide]",6.86
13,"C[C@H]1CN(Cc2cc3ccccc3s2)C[C@H]1NC(=O)c1cc(C2CC2)on1 (racemic) [compound 195, (±)-cis-N-[1-(1-benzothiophen-2-ylmethyl)-4-methyl-pyrrolidin-3-yl]-5-cyclopropyl-1,2-oxazole-3-carboxamide]",33.4
14,"CCc1nc(C)c(CN2C[C@H](C)[C@H](NC(=O)c3cc(C4CC4)on3)C2)[nH]1 (racemic) [compound 196, (±)-cis-5-cyclopropyl-N-(1-[(2-ethyl-4-methyl-1H-imidazol-5-yl)methyl]-4-methylpyrrolidin-3-yl)-1,2-oxazole-3-carboxamide]",35.5
15,"C[C@H]1CN(Cc2ccnc3ccccc23)C[C@H]1NC(=O)c1cc(C2CC2)on1 (racemic) [compound 197, (±)-cis-5-cyclopropyl-N-[4-methyl-1-(quinolin-4-ylmethyl)pyrrolidin-3-yl]-1,2-oxazole-3-carboxamide]",> 50
16,"C[C@H]1CN(Cc2ccc(-c3cc(Cl)ccc3Cl)o2)C[C@H]1NC(=O)c1cc(C2CC2)on1 (racemic) [compound 198, (±)-cis-5-cyclopropyl-N-(1-{[5-(2,5-dichloro-phenyl)furan-2-yl]methyl}-4-methyl-pyrrolidin-3-yl)-1,2-oxazole-3-carboxamide]",> 50
17,"CC[C@H]1CN(C(C)C)C[C@@H]1NC(=O)c1cc(C2CC2)on1 (racemic) [compound 199, (±)-trans-5-cyclopropyl-N-[4-ethyl-1-(propan-2-yl)pyrrolidin-3-yl]-1,2-oxazole-3-carboxamide]",25.7

row,Structure (SMILES),IC50 [µM]
1,"CC(C)N1C[C@@H](C)[C@H](NC(=O)c2cc(C(C)(C)C)on2)C1 (racemic) [compound 200, (±)-trans-5-tert-butyl-N-[4-methyl-1-(propan-2-yl)pyrrolidin-3-yl]-1,2-oxazole-3-carboxamide]",> 50
2,"CC(C)N1C[C@H](C)[C@H](NC(=O)c2cc(C(C)(C)C)on2)C1 (racemic) [compound 201, (±)-cis-5-tert-butyl-N-[4-methyl-1-(propan-2-yl)pyrrolidin-3-yl]-1,2-oxazole-3-carboxamide]",> 50
3,"C[C@H]1CN(CC2CCC2)C[C@H]1NC(=O)c1cc(C2CC2)on1 (racemic) [compound 202, (±)-cis-N-[1-(cyclobutyl-methyl)-4-methyl-pyrrolidin-3-yl]-5-cyclopropyl-1,2-oxazole-3-carboxamide]",1.63
4,"C[C@@H]1CN(Cc2c[nH]c3cc(Cl)ccc23)C[C@H]1NC(=O)c1cc(C2CC2)on1 (racemic) [compound 203, (±)-trans-N-[1-[(6-chloro-1H-indol-3-yl)methyl]-4-methyl-pyrrolidin-3-yl]-5-cyclopropyl-1,2-oxazole-3-carboxamide]",48.3
5,"C[C@@H]1CN(Cc2ccc3ncccc3c2)C[C@H]1NC(=O)c1cc(C2CC2)on1 (racemic) [compound 204, (±)-trans-5-cyclopropyl-N-[4-methyl-1-(quinolin-6-ylmethyl)pyrrolidin-3-yl]-1,2-oxazole-3-carboxamide]",> 50
6,"C[C@H]1CN(CC2CCN(C(=O)OC(C)(C)C)CC2)C[C@H]1NC(=O)c1cc(C2CC2)on1 (racemic) [compound 205, (±)-cis-tert-butyl 4-{[3-(5-cyclopropyl-1,2-oxazole-3-amido)-4-methylpyrrolidin-1-yl]methyl}piperidine-1-carboxylate]",7.69
7,"C[C@H]1CN(Cc2ccc(Cl)cc2)C[C@H]1NC(=O)c1cc(C2CC2)on1 (racemic) [compound 210, (±)-cis-N-[1-[(4-chloro-phenyl)methyl]-4-methylpyrrolidin-3-yl]-5-cyclopropyl-1,2-oxazole-3-carboxamide]",4.32
8,"C[C@H]1CN(Cc2cnc3ncccn23)C[C@H]1NC(=O)c1cc(C2CC2)on1 (racemic) [compound 211, (±)-cis-5-cyclopropyl-N-[1-{imidazo[1,2-a]pyrimidin-3-ylmethyl}-4-methylpyrrolidin-3-yl]-1,2-oxazole-3-carboxamide]",> 50
9,"COc1ccc(CN2C[C@H](C)[C@H](NC(=O)c3cc(C4CC4)on3)C2)c(OC)c1 (racemic) [compound 212, (±)-cis-5-cyclopropyl-N-[1-[(2,4-dimethoxy-phenyl)methyl]-4-methylpyrrolidin-3-yl]-1,2-oxazole-3-carboxamide]",5.23
10,"CC(C)CCN1C[C@H](C)[C@H](NC(=O)c2cc(C3CC3)on2)C1 (racemic) [compound 213, (±)-cis-5-cyclopropyl-N-[4-methyl-1-(3-methylbutyl)pyrrolidin-3-yl]-1,2-oxazole-3-carboxamide]",1.62
11,"Cc1ccc2[nH]cc(CN3C[C@H](C)[C@H](NC(=O)c4cc(C5CC5)on4)C3)c2c1 (racemic) [compound 214, (±)-cis-5-cyclopropyl-N-[4-methyl-1-[(5-methyl-1H-indol-3-yl)methyl]pyrrolidin-3-yl]-1,2-oxazole-3-carboxamide]",29.5
12,"C[C@@H]1CN(CC(F)F)C[C@H]1NC(=O)c1cc(C2CC2)on1 (racemic) [compound 215, (±)-trans-5-cyclopropyl-N-[1-(2,2-difluoro-ethyl)-4-methylpyrrolidin-3-yl]-1,2-oxazole-3-carboxamide]",> 50
13,"C[C@H]1CN(CC(F)F)C[C@H]1NC(=O)c1cc(C2CC2)on1 (racemic) [compound 216, (±)-cis-5-cyclopropyl-N-[1-(2,2-difluoroethyl)-4-methylpyrrolidin-3-yl]-1,2-oxazole-3-carboxamide]",> 50
14,"CC(C)N1C[C@H](C)[C@H](NC(=O)c2cc(C3(C)CC3)on2)C1 (racemic) [compound 217, (±)-cis-N-[4-methyl-1-(propan-2-yl)pyrrolidin-3-yl]-5-(1-methyl-cyclopropyl)-1,2-oxazole-3-carboxamide]",22.3
15,"CC(C)[C@@H]1CN(C)C[C@@H]1NC(=O)c1cc(C2CC2)on1 (racemic) [compound 218, (±)-cis-5-cyclopropyl-N-[1-methyl-4-(propan-2-yl)pyrrolidin-3-yl]-1,2-oxazole-3-carboxamide]",37.4
16,"CC(C)[C@H]1CN(C(C)C)C[C@H]1NC(=O)c1cc(C2CC2)on1 (racemic) [compound 219, (±)-cis-N-[1,4-bis(propan-2-yl)pyrrolidin-3-yl]-5-cyclopropyl-1,2-oxazole-3-carboxamide]",> 50
